Data reported in publication PMC12308784, “Organometallic Half-Sandwich Complexes of 1,10-Phenanthroline Derivatives with Improved Solubility, Albumin-Binding, and Nanoformulation Potential Targeting Drug Resistance in Cancer” (Inorganic Chemistry, 2025).
Where two headings read alike, the source gives them in different places.

How the values were obtained:
[1] = test system: MDA-MB-231, MCF-7 and T-47D breast cancer cell lines; assay: PrestoBlue cytotoxicity, range over the three breast cancer lines; assay type: cell-based; conditions: MDA-MB-231, MCF-7, T-47D; 72 h
Protocol: The PHEN-derived ligands (DCP, BP) (together with PHEN for comparison) and the isolated complexes ([RuCym(DCP)-Cl]-Cl, [RhCp*(DCP)-Cl]-Cl, [RuCym(BP)-Cl]-Cl, [RhCp*(BP)-Cl]-Cl) were tested against the estrogen receptor (ER) negative MDA-MB-231, and the ER positive MCF-7 and T-47D breast cancer cell lines (Table , and Figure a for easier comparison).
(§1) MDA-MB-231 breast adenocarcinoma and MCF-7 and T-47D invasive breast carcinomas were purchased from the Developmental Therapeutic Program of the National Cancer Institute (NIH, USA), and they were cultured in RPMI medium (Thermo Fisher). MES–SA and MES–SA/Dx5 uterine sarcoma cell lines were purchased from American Type Culture Collection and were kept in DMEM (Thermo Fisher). MES–SA/B1 was created by the transfection of the human MDR1 gene in MES–SA, and MES–SA mCherry, MES–SA/B1 mOrange, and MES–SA/Dx5 eGFP were engineered to stably express the respective fluorescent proteins, as described previously. Culture media were supplemented with 10% fetal bovine serum, 2 mM L-glutamine, 100 units/mL penicillin, and 100 μg/mL streptomycin (Thermo Fisher). Cells were kept at 37 °C under 5% CO2 and were negative for mycoplasma infection.
(§2) Cytotoxicity of the nonfluorescent cancer cells (MDA-MB-231, MCF-7, T-47D) were assessed with PrestoBlue cell viability reagent (Thermo Fisher). Briefly, 2500 cells/well were seeded on 384-well plates, and then the next day drugs were added. After 72 h incubation, PrestoBlue was added in a 10% final concentration, and after an hour of additional incubation, plates were measured with a PerkinElmer EnSpire plate reader at 555 nm/585 nm excitation/emission wavelengths. Fluorescent cells (MES-SA mCherry, MES-SA/B1 mOrange, MES-SA/Dx5 eGFP) were admixed before seeding on 384-well plates at 800 cells/well density each, thus altogether 2400 cells/well. Drugs were added the following day, and the intensity of the fluorescent proteins were measured after 144 h incubation at the respective fluorescent channels (excitation/emission: eGFP: 485 nm/510 nm; mCherry: 585 nm/610 nm; mOrange: 545 nm/567 nm). pIC50 values were calculated by a custom program written by Judit Sessler in C#. IC50 values and standard deviation were calculated from average pIC50 values from at least 3 independent measurements.

MES-SA mCherry = assay: fluorescent triple coculture cytotoxicity assay; assay type: cell-based, human; conditions: for IC50: MES-SA mCherry, coculture, read-out: IC50; for pIC50 (mean): Mes-Sa mCherry, Table S6
Description: (§3) Cytotoxicity of the compounds were further tested also in an in vitro MDR model system, consisting of an MES-SA uterine sarcoma cell line, and its P-gp (ABCB1) overexpressing variants MES-SA/B1, that was genetically engineered to express P-gp, and MES-SA/Dx5, which acquired a P-gp-mediated MDR phenotype due to selection in doxorubicin. , The expression of different fluorescent proteins in each line (mCherry, mOrange, or eGFP) allowed coculturing of these three cell lines, providing more relevant data compared to monocultures, as the interaction between parental and resistant phenotypes is reflected in cytotoxicity.
(§4) Cytotoxicity of nanoformulated [RhCp*(BP)-Cl]-Cl with cross-linked HSA and HTP carriers was tested against the previously introduced triple coculture of fluorescent MES-SA cells with a slight difference. Namely, the media containing the dissolved products were removed from the wells, and fresh media was added prior to the measurement as the presence of cross-linked HSA and HTP formulations interfered with the fluorescence of the cells.
as §1
as §2, with “Fluorescent cells (MES-SA mCherry, MES-SA/B1 mOrange, MES-SA/Dx5 eGFP) were admixed before seeding on 384-well plates at 800 cells/well density each, thus altogether 2400 cells/well.” left out, “measurements. Since the IC50 values were obtained through nonlinear regression fitting of the viability vs. log(concentration) data, the resulting confidence intervals are inherently asymmetric (see pIC50 values and their corresponding SD in Tables S5 and S6).” for “measurements.”

MES-SA/B1-mOrange = assay: fluorescent triple coculture cytotoxicity assay; assay type: cell-based, human; conditions: for IC50: MES-SA/B1-mOrange, coculture, read-out: IC50; for pIC50 (mean): Mes-Sa/B1 mOrange, Table S6; for SR (MES-SA/B1): selectivity ratio versus parental MES-SA
Description: as §3, §4, §1
as §2, with “Fluorescent cells (MES-SA mCherry, MES-SA/B1 mOrange, MES-SA/Dx5 eGFP) were admixed before seeding on 384-well plates at 800 cells/well density each, thus altogether 2400 cells/well.” left out, “measurements. Since the IC50 values were obtained through nonlinear regression fitting of the viability vs. log(concentration) data, the resulting confidence intervals are inherently asymmetric (see pIC50 values and their corresponding SD in Tables S5 and S6).” for “measurements.”

MES-SA/Dx5-eGFP = assay: fluorescent triple coculture cytotoxicity assay; assay type: cell-based, human; conditions: for IC50: MES-SA/Dx5-eGFP, coculture, read-out: IC50; for pIC50 (mean): Mes-Sa/Dx5 eGFP, Table S6; for SR (MES-SA/Dx5): selectivity ratio versus parental MES-SA
Description: as §3, §4, §1
as §2, with “Fluorescent cells (MES-SA mCherry, MES-SA/B1 mOrange, MES-SA/Dx5 eGFP) were admixed before seeding on 384-well plates at 800 cells/well density each, thus altogether 2400 cells/well.” left out, “measurements. Since the IC50 values were obtained through nonlinear regression fitting of the viability vs. log(concentration) data, the resulting confidence intervals are inherently asymmetric (see pIC50 values and their corresponding SD in Tables S5 and S6).” for “measurements.”

MDA-MB-231 = assay: PrestoBlue cytotoxicity assay; assay type: cell-based
Protocol: as §1
as §2, with “measurements. Since the IC50 values were obtained through nonlinear regression fitting of the viability vs. log(concentration) data, the resulting confidence intervals are inherently asymmetric (see pIC50 values and their corresponding SD in Tables S5 and S6).” for “measurements.”

MCF-7 = assay: PrestoBlue cytotoxicity assay; assay type: cell-based
Protocol: as §1
as §2, with “measurements. Since the IC50 values were obtained through nonlinear regression fitting of the viability vs. log(concentration) data, the resulting confidence intervals are inherently asymmetric (see pIC50 values and their corresponding SD in Tables S5 and S6).” for “measurements.”

T47D = assay: PrestoBlue cytotoxicity assay; assay type: cell-based
Protocol: as §1
as §2, with “measurements. Since the IC50 values were obtained through nonlinear regression fitting of the viability vs. log(concentration) data, the resulting confidence intervals are inherently asymmetric (see pIC50 values and their corresponding SD in Tables S5 and S6).” for “measurements.”

[2] = 96-well plate, media replaced before measurement
[3] = 72 h, 384-well plate, read-out: IC50

## [Rh(III)(η^5-C5Me5)(bathophenanthroline)Cl]Cl [RhCp*BP]
[1]
  IC50: 4.7 to 14.9 µM
MES-SA mCherry; [2]
  IC50: 2900 nM
MES-SA mCherry; 384-well plate, 144 h, listed as [RhCp*(BP)Cl]Cl
  IC50: 1560 nM
MES-SA mCherry; 96-well plate
  pIC50 (mean): 5.54
MES-SA mCherry; 384-well plate
  pIC50 (mean): 5.81
MES-SA/B1-mOrange; [2]
  IC50: 2430 nM
MES-SA/B1-mOrange; 384-well plate, 144 h
  IC50: 1370 nM
MES-SA/B1-mOrange; 96-well plate
  pIC50 (mean): 5.61
  SR (MES-SA/B1): 1.2
MES-SA/B1-mOrange; 384-well plate
  pIC50 (mean): 5.86
  SR (MES-SA/B1): 1.1
MES-SA/Dx5-eGFP; [2]
  IC50: 1770 nM
MES-SA/Dx5-eGFP; 384-well plate, 144 h
  IC50: 230 nM
MES-SA/Dx5-eGFP; 96-well plate
  pIC50 (mean): 5.75
  SR (MES-SA/Dx5): 1.6
MES-SA/Dx5-eGFP; 384-well plate
  pIC50 (mean): 6.63
  SR (MES-SA/Dx5): 6.7
MDA-MB-231; [3]
  IC50: 4.68 µM
MDA-MB-231; Table S5
  pIC50 (mean): 5.33
MCF-7; [3]
  IC50: 14.9 µM
MCF-7; Table S5
  pIC50 (mean): 4.83
T47D; [3]
  IC50: 5.28 µM
T47D; Table S5
  pIC50 (mean): 5.28
